Legend:
[1] = system: ARPE-19 cells; assay: Fatty acids against 7KCh-mediated cell death (CCK8); type: cell-based; conditions: for CONC. (μM): lowest concentration required to maintain full cell viability against 7KCh: 12 μM 7KCh for 24 hr, tested 0.1, 0.5, 1, 5 and 10 μM
Experimental: FIGS. 12A-12C depict ARPE-19 cell viability in response to 12 μM 7KCh with or without 0.1-5 μM (A) sterculic acid and (B) stearic acid after 24 hr treatments. Error bars indicate the standard deviations. n=3-5. Two-tailed Student's t-test. (C) Representative images of changes in cell morphology in response to 12 μM 7KCh with or without 1 μM sterculic acid and stearic acid after 24 hr treatments.
(§1) ARPE-19 cells were seeded in 24-well plates with 1×10^5 cells per well and allowed to recover for 16-24 hr. Once confluency reached approximately 90%, the effect of the fatty acids against 7KCh-mediated cell death was examined 24 hr after incubation in serum-free medium with 12 μM 7KCh. Fatty acids were tested at 0.1, 0.5, 1, 5 and 10 μM concentrations. The effects of the fatty acids against 7KCh-mediated inflammation and ER stress were examined by incubating cells in 1 μM fatty acids with either 8 μM 7KCh (24 hr for quantitative real-time PCR (qRT-PCR), 24 and 48 hr for immunoblot), or 6 μM 7KCh for 48 hr (for ELISA). Three individual experiments were performed for each treatment with quadruplicate measurements performed for each experiment in 24-well plates.
The cell viability was determined by the dehydrogenase activity of the ARPE-19 cells using Cell Counting Kit-8 (CCK8, Dojindo, Gaithersburg, Md.) according to manufacturer's protocol.
The lowest effective concentrations of fatty acids that offset the 7KCh-mediated cell death were determined. […] Table 3 lists the lowest concentrations of these fatty acids required to maintain full cell viability against 12 μM 7KCh treatment. All unsaturated fatty acids protected against 7KCh-induced cell death. […] DHA, α-linolenic, and linoleic acid prevented 7KCh-mediated cell death at 5 μM but the rest of unsaturated fatty acids and dihydrosterculic acid required 10 μM to be protective.

[2] = system: ARPE-19 cells; assay: qRT-PCR of inflammatory cytokines and ER stress markers, 7KCh-mediated inflammation; type: cell-based; conditions: for effect on 7KCh-mediated mRNA induction (inflammatory response): 1 μM fatty acid + 8 μM 7KCh, FIG. 13; for effect on 7KCh-mediated mRNA induction (inflammatory response) / VEGF mRNA expression / IL-6 mRNA expression / GRP78 mRNA expression / CHOP mRNA expression: 24 hr; for VEGF mRNA expression: FIG. 13A; for IL-6 mRNA expression: FIG. 13B; for GRP78 mRNA expression: FIG. 13C; for CHOP mRNA expression: FIG. 13D
Experimental: FIGS. 13A-13D depict mRNA expressions of (A) VEGF, (B) IL-6, (C) GRP78, and (D) CHOP in response to 8 μM 7KCh with or without 1 μM long-chain fatty acids. Error bars indicate the standard deviations. *p<0.05 comparing to 7KCh, n=3. Two-tailed Student's t-test.
(§2) FIGS. 14A-14D depict mRNA expressions of (A) VEGF, (B) IL-1b, (C) IL-6, and (D) IL-8 in response to 8 μM 7KCh, 1 μM sterculic acid, 1 μM stearic acid, or the combinations of 7KCh with either sterculic acid or stearic acid. Error bars indicate the standard deviations. *p<0.05 comparing to 7KCh, n=4. Two-tailed Student's t-test.
as §2, with “15A-15D” for “14A-14D”, “TNF-α,” for “VEGF,”, “TGF-β1,” for “IL-1b,”, “GRP78,” for “IL-6,”, “CHOP” for “IL-8”, “n=3-4.” for “n=4.”
as §1
(§3) The RNA was extracted using RNeasy Mini Kit (Qiagen, Valencia, Calif.). The reverse transcription was performed with reagents and kits from Invitrogen. Quantification of mRNA expression was performed using the Taqman gene expression assays and the following primers (VEGFa, Hs00173626_m1; IL-1β, Hs01555413_m1; IL-6, Hs00174131_m1; IL-8, Hs00174103_m1; IκBα, Hs00153283_m1; GRP78, Hs99999174_m1; CHOP, Hs01090850_m1; NOX2, Hs00166163_m1; NOX4, Hs01558199_m1; SCD, Hs00748952 s1; TNF-α, Hs00174128_m1; TGF-β1, Hs00998133_m1; GAPD, 4352934e). GAPD expression was used as an endogenous standard. All qRT-PCR experiments were measured in triplicates in an ABI 7500 Real-Time PCR Instrument (Applied Biosystems, Foster City, Calif.). The results of each treatment were normalized and presented in percentage relative to the vehicle-only control.

[3] = system: ARPE19 cells; assay: 7-ketocholesterol-mediated cytotoxicity, 24-well CCK-8 viability and images; conditions: 24 hr
[4] = system: ARPE19 cells; assay: Cell Counting Kit-8 viability assay, 15 μM 7KCh-induced cytotoxicity; conditions: 1 μM fatty acid + 15 μM 7KCh, 24 hr, CCK-8
Experimental: 4×10^4 cells were seeded onto wells of a 96 well plate. […] Cell viability was determined as celluar dehydrogenase activity and expressed as the percentage of compound treated cells relative to that of untreated controls. error bar: standard deviation, n=4.
The kit allows sensitive colorimetric assays for the determination of the number of viable cells in cell proliferation and cytotoxicity assays. The amount of the formazan dye generated by the activity of dehydrogenases in cells is directly proportional to the number of living cells.
1) Cells were cultivated in a 96 well cell plate (Costar#3599, Corning Incorp, Corning, N.Y.).
2) The cell suspension (40,000 cells/100 μL) were added to 100 μL culture media per well and stood for 15 min at room temperature and cultured at 37° C. in a humidified 5% CO2 atmosphere.
3) Approximately 19 hr after seeding, when the cells were fully confluent, the cells were treated with either DMSO or 1 μM fatty acid in 200 μL of serum free media and subsequently added with 15 μM 7KCh in HPBCD. Then, the plate was swirled for mixing. The cells were also treated with DMSO and HPBCD, which served as vehicle control. The final DMSO and HPBCD concentrations in the media were in the range of 0.1% and 0.0675%, respectively.
Cell viability was expressed as the percentage of compound treated cells relative to that of untreated controls. Prior to measure cell viability, the cells were imaged live by Nikon TE 2000-U inverted fluorescent microscope.

[5] = system: ARPE19 cells; assay: CellTiter-Glo luminescent cell viability assay, 15 μM 7KCh-induced cytotoxicity; type: cell-based, human; conditions: 1 μM fatty acid + 15 μM 7KCh, 24 hr, CellTiter-Glo
Experimental: Error bar: standard deviation, n=4.
CellTiter-Glo® Luminescent Cell Viability Assay is a homogeneous method of determining the number of viable cells in culture based on quantitation of the ATP (luminescent signal) present, an indicator of metabolically active cells.
The contents in a plate were mixed for 2 min on an orbital shaker to induce cell lysis.
5) The plate was allowed to incubate at room temperature for 10 min to stabilize luminescent signal.

[6] = system: ARPE19 cells; assay: Phase-contrast images of cells after co-treatment with 15 μM 7KCh; type: cell-based, human; conditions: 1 μM fatty acid + 15 μM 7KCh, 24 hr
Source text: FIG. 8 depicts phase-contrast images of ARPE19 cells at 24 hr after sterculic acid co-treatment with 7KCh.

[7] = system: ARPE-19 cells; assay: Immunoblots of CHOP and GRP78; type: cell-based; conditions: 1 μM + 8 μM 7KCh, 24 hr
Experimental: (§4) FIGS. 16A-16E depict the secreted protein levels of (A) VEGF, (B) IL-6, and (C) IL-8 were measure by ELISA 48 hr after treatment with 6 μM 7KCh, 1 μM sterculic acid, 1 μM stearic acid, or the combinations of 7KCh with either sterculic acid or stearic acid. Error bars indicate the standard deviations. *p<0.05 comparing to 7KCh, n=3. Two-tailed Student's t-test. The expressions of GRP78 and CHOP were shown by immunoblots (D) 24 hr or (E) 48 hr after treatment with 8 μM 7KCh, 1 μM sterculic acid, 1 μM stearic acid, or the combinations of 7KCh with either sterculic acid or stearic acid.
as §1
Lysis of ARPE-19 cells was performed using MPER buffer solution (Thermo Fisher Scientific) containing Complete Protease Inhibitor Cocktail (Roche Diagnostics). A total of 10 μg protein samples of the cell lysate were separated by SDS-PAGE on 10% Bis-Tris gels (Invitrogen). The gels were blotted on to nitrocellulose membranes (Invitrogen). The proteins were probed with primary antibodies for CHOP (1:1000 dilution), GRP78 (1:1000), or GAPDH (1:2000) at 4° C. overnight. The membranes were then further incubated with anti-rabbit IgG, HRP-linked antibodies (1:2000 dilution) at room temperature for 1 hr. […]

[8] = system: ARPE-19 cells; assay: qRT-PCR of cytokines in TNF-α treated cells; type: cell-based; conditions: 24 hr
Experimental: FIGS. 17A-17D depict the mRNA expressions of (A) IL-1β, (B) IL-8, (C) IκBα, and (D) GRP78 in response to 2 ng/ml TNF-α, 1 μM sterculic acid, 1 μM stearic acid, or the combinations of TNF-α with either sterculic acid or stearic acid. n=3. Error bars indicate the standard deviations.
Tumor necrosis factor-alpha (TNF-α, Roche Diagnostics, Indianapolis, Ind.) was diluted in PBS to make 10 μg/ml stock solution and stored at −20° C. In order to test the anti-inflammation effect of fatty acids against TNF-α, ARPE-19 cells were treated with 2 ng/ml of TNF-α for 24 hr in serum-free medium with or without 1 μM fatty acids. The mRNA expressions of cytokines were then examined using qRT-PCR. Each treatment was performed three times with quadruplicate measurements in each experiment, in 24-well plates.
as §3

[9] = system: ARPE-19 cells; assay: ELISA of secreted VEGF, IL-6, IL-8 in conditioned medium; type: cell-based; conditions: 1 μM + 6 μM 7KCh, 48 hr
Experimental: as §4, §1
The levels of secreted VEGF, IL-6, IL-8, and TNF-α in conditioned medium of ARPE-19 cell cultures were measured 48 hr after treatments of 6 μM 7KCh and 1 μM fatty acids using the Quantkine ELISA kits from R&D systems (Minneapolis, Minn.). The protein levels were measured in triplicates. The ELISA results were quantified using an Envision multilable plate reader (PerkinElmer, Covina, Calif.) and presented in percentage relative to the vehicle-only control.

[10] = 8 μM 7KCh alone or with 1 μM fatty acid

Question: How did the “CONC. (μM): lowest concentration required to maintain full cell viability against 7KCh” value (shortened to “CONC. (μM)”) [1] turn out when `CCCCC/C=C\C/C=C\C/C=C\C/C=C\CCCC(=O)O` [arachidonic acid, Arachidonic acid] was run?
Answer: 10 µM

Question: And the “effect on 7KCh-mediated mRNA induction (inflammatory response)” value (shortened to “effect on 7KCh-mediated mRNA induction”) [2]?
Answer: either ineffective or enhanced

Question: What does the source list for `CCCCCCCC[C@@H]1C[C@@H]1CCCCCCCC(=O)O` [dihydrosterculic acid, Dihydrosterculic acid]?
Answer: protection of cell confluency and morphology (images) ([3]; 0.5 μM co-treatment with 12 μM 7KCh): no effect; protection of cell confluency and morphology (images) ([3]; 1 μM co-treatment with 12 μM 7KCh): slight effect; protection of cell confluency and morphology (images) ([3]; 1 μM co-treatment with 12 μM 7KCh, listed as Dihydrosterculic acid): do not have such protection effect; increase of cell viability compared to 7KCh alone treatment [4]: 20%; CONC. (μM): lowest concentration required to maintain full cell viability against 7KCh [1]: 10 µM; increase of cell viability compared to 7KCh alone treatment [5]: 20%; VEGF mRNA expression [2, 10]: essentially ineffective; IL-6 mRNA expression [2, 10]: somewhat effective; GRP78 mRNA expression [2, 10]: somewhat effective; CHOP mRNA expression [2, 10]: somewhat effective; cell morphological changes compared to 7KCh alone [6]: more cells compared to 7KCh alone

Question: How did the “CONC. (μM)” value [1] turn out when `CC/C=C\C/C=C\C/C=C\C/C=C\C/C=C\C/C=C\CCC(=O)O` [docosahexaenoic acid] was run?
Answer: 5 µM

Question: `CCCCC/C=C\C/C=C\CCCCCCCC(=O)O` [linoleic acid] was tested. Which “CONC. (μM)” value [1] did it give?
Answer: 5 µM

Question: What about the “effect on 7KCh-mediated mRNA induction” value [2] of the same molecule?
Answer: either ineffective or enhanced

Question: With `CCCCCCCCCCCCCCCCCC(=O)O` [stearic acid] as the molecule, how does the “effect on 7KCh-induced CHOP and GRP78 protein expression” value [7] read?
Answer: no effect

Question: What about the “antagonist effect to the cytokine inductions by TNF-α” value ([8]; 1 μM fatty acid + 2 ng/ml TNF-α) of the same molecule?
Answer: seemed to enhance

Question: What about the “effect on secreted VEGF, IL-6, IL-8 protein levels” value [9] of the same molecule?
Answer: no measurable effect

Question: And the “morphological effects on the cells (images)” value ([1]; 1 μM + 12 μM 7KCh, 24 hr, FIG. 12C)?
Answer: no effect

Question: And the “protective effect against 7KCh-mediated cell death” value ([1]; 12 μM 7KCh, 24 hr, 0.1-10 μM fatty acid)?
Answer: did not demonstrate any protective effect

Question: What about the “antagonistic effect to 7KCh-mediated mRNA induction” value ([2]; 1 μM + 8 μM 7KCh, FIGS. 14, 15) of the same molecule?
Answer: did not show any antagonistic effect

Question: What about the “effect on 7KCh-mediated mRNA induction” value [2] of the same molecule?
Answer: either ineffective or enhanced

Question: What about the “effect of fatty acid alone on the mRNA expression of the cytokines” value ([2]; 1 μM fatty acid alone, no 7KCh, FIGS. 14, 15) of the same molecule?
Answer: no effect

Question: What about the “induction of VEGF mRNA” value ([2]; 8 μM 7KCh alone or with 1 μM fatty acid, FIG. 14A) of the same molecule?
Answer: 8.8 fold

Question: What about the “induction of IL-6 mRNA” value ([2]; 8 μM 7KCh alone or with 1 μM fatty acid, FIG. 14C) of the same molecule?
Answer: 29 fold

Question: With `CC/C=C\C/C=C\C/C=C\CCCCCCCC(=O)O` [α-linolenic acid] as the molecule, how does the “CONC. (μM)” value [1] read?
Answer: 5 µM

Question: What about the “VEGF mRNA expression” value [2, 10] of the same molecule?
Answer: essentially ineffective

Question: What about the “IL-6 mRNA expression” value [2, 10] of the same molecule?
Answer: somewhat effective

Question: What about the “GRP78 mRNA expression” value [2, 10] of the same molecule?
Answer: somewhat effective

Question: And the “CHOP mRNA expression” value [2, 10]?
Answer: somewhat effective

Question: Which results are given for TNF-α?
Answer: induction of GRP78 mRNA expression ([8]; 2 ng/ml TNF-α alone or with 1 μM fatty acid, FIG. 17D): 2.5 fold; induction of IL-1β mRNA expression ([8]; 2 ng/ml TNF-α): 9 fold; induction of IL-8 mRNA expression ([8]; 2 ng/ml TNF-α): 8 fold; induction of IκBα mRNA expression ([8]; 2 ng/ml TNF-α): 3 fold

Reference: patent US8993626B2, “Methods of treatment using sterculic acid” (The United States of America, as represented by the …, priority 2010, dated 2015)
